Like-named read-outs stand apart in the source and are kept apart here.
Experiments:
[1] = molecular target: T1, human prostanoid receptor EP2 (Homo sapiens, UniProt P43116); experiment: EP2 cAMP release assay in CHOp6CreLuc-huEP2 cells (CRE-luciferase readout); format: cell-based
T1 construct: expressed in transfected cells; host or cells: CHO-K1 (CHOp6CreLuc-huEP2)
Procedure: Method for Measuring cAMP Release in Human EP2 Stably Transfectant Cells:
The potency and efficacy of EP2 agonists have been determined via measuring cAMP release in stably transfectant CHO-K1 cell expressing the human prostanoid receptor EP2 and luciferase enzyme regulated via a 6 times CRE (cAMP response element) containing transcriptional promoter. CHOp6CreLuc-huEP2 cells were seeded into 384-well plate (1000 cells per well) in DMEM/F12 (Dulbecco's Modified Eagle Medium/Nutrient Mixture F12) cell culture medium containing 2% FCS (Fetal Calf Serum) and 500 μg/ml G418 24 hours prior to the experiment. Test compound was added as serial dilutions while keeping the final DMSO concentration constant in each well. […] Cells were incubated together with test compound or butaprost for 4 hours at 37° C. The cAMP release was determined indirectly via luciferase activity that directly correlated to the amount of luciferase enzyme expressed in response to cAMP regulated promoter activity. The luciferase activity was determined by addition of luciferin containing buffer and subsequent quantification of resulting luminescence. Each sample was measured in quadruplicates per experiment and half-maximal effective concentration (EC50) and relative maximal effect compared to butaprost was determined from 3 independent experiments with GraphPad Prism Software. A compound that achieved over 80% of the maximal effect of butaprost was considered as full agonist.
For the following compounds the potency was determined in the cAMP release assay applying human EP2 transfectant CHOp6CreLuc-huEP2 cells. […] The numbers of the compounds correspond to the examples numbers.
EP2 cAMP Release Assay: pEC50

[2] = test system: TNFalpha release in human whole blood stimulated with LPS; experiment: Inhibition of LPS induced TNFalpha release in human whole blood; format: cell-based; details: 1 microg/mL LPS, 4 hours, reported as range bins, read-out: Inhibition of LPS induced TNFalpha release in human whole blood pIC30 (-log IC30)
Procedure: Method for Measuring the Inhibition of TNFalpha Release in Human Whole Blood Stimulated with LPS:
Assay was performed with some modifications of the method described by Hatzelmann and Schudt (Hatzelmann and Schudt (2001) JPET 297: 267-279) and the protocol “drawing of venous blood from healthy volunteers for in vitro studies” was approved by the ethics committee of the Landesärztekammer Baden Württemberg in Stuttgart.
Heparinised venous blood was equilibrated to assay conditions for 1 hour at room temperature upon blood drawing. Immediately thereafter, 200 microL whole blood per sample were pre-incubated with 25 microL of a serial dilution of test compound or piclamilast as positive control for 30 min. at 37° C. After pre-incubation blood samples were stimulated by the addition of 25 microL lipopolysaccharide (LPS) (Sigma, Aldrich) per sample resulting in a final concentration of 1 microg/mL LPS and a final volume of 250 microL. Cells were incubated for 4 hours at 37° C. TNFalpha levels were determined from plasma that was obtained by a centrifugation step and transferring the supernatant to a new 96-well plate which was again centrifuged and clear plasma supernatant was used for the measurement of TNFalpha via alphaLISA Technology according to manufacture protocol (Perkin Elmer).
(§1) Whole blood samples that were not stimulated with LPS were used as control and set for 100% inhibition. Whole blood samples that were stimulated with LPS and solvent instead of test compound were set as 0% inhibition. Percent inhibition was calculated based on these controls for each sample and since most compounds achieved saturating maximal inhibition of 60% a pIC30 value was calculated with GraphPad Prism Software.
For the following compounds the inhibitory values of TNFalpha release [determined as −log IC30=pIC30] in the human whole blood assay between 4.5 and 4.9, between 5.0 and 5.9 and between 6.0 and 6.9 have been determined. The numbers of the compounds correspond to the examples numbers.
Inhibition of LPS Induced TNFalpha Release Assay in Human Whole Blood: pIC30

[3] = test system: TNFalpha release in human peripheral blood mononuclear cells (PBMC) stimulated with LPS; experiment: Inhibition of LPS induced TNFalpha release in human PBMCs; format: cell-based; details: 1 ng/mL LPS, 24 hours, reported as range bins, read-out: Inhibition of LPS induced TNFalpha release in human PBMCs pIC30 (-log IC30)
Procedure: Method for Measuring the Inhibition of TNFalpha Release in Human Peripheral Blood MononuClear Cells (PBMC) Stimulated with LPS:
Assay was performed with some modifications of the method described by Hatzelmann and Schudt (Hatzelmann and Schudt 2001, J. Pharmacol. Exp. Therapeutics 297: 267-279) and the protocol “drawing of venous blood from healthy volunteers for in vitro studies” was approved by the ethics committee of the Landesärztekammer Baden Württemberg in Stuttgart. Peripheral blood mononuclear cells (PBMCs) were isolated from venous blood with the anticoagulant citrate from healthy donors according to standard protocols using Ficoll. The cell layer of PBMCs were washed twice with phosphate buffer solution and equilibrated at room temperature for 60 minutes. 500,000 PBMCs in 180 microL RPMI1640 cell medium supplemented with 10% FCS, NEAA (Non-essential-amino-acids), L-Glutamine and Sodium Pyruvate per sample were pre-incubated with 10 microL of a serial dilution of test compound or piclamilast as positive control for 60 min. at 37° C. After pre-incubation blood samples were stimulated by the addition of 10 microL LPS (Sigma, Aldrich) per sample resulting in a final concentration of 1 ng/mL LPS and a final volume of 200 microL. Cells were incubated for 24 hours at 37° C. TNFalpha levels were determined from cell supernatant that was obtained by a centrifugation step and transferring the supernatant to a new 96-well plate. Content of TNFalpha was determined via alphaLISA Technology according to manufacture protocol (Perkin Elmer).
as §1, with “PBMC” for “Whole blood”
For the following compounds the inhibitory values of TNFalpha release [determined as −log IC30=pIC30] in human PBMCs between 5.0 and 5.9, between 6.0 and 6.9, between 7.0 and 7.9 and between 8.0 and 9.0 have been determined. The numbers of the compounds correspond to the examples numbers.
Inhibition of LPS Induced TNFalpha Release Assay in Human PBMCs: pIC30

human EP2 receptor = molecular target: T2, human EP2 receptor (Homo sapiens, UniProt P43116); experiment: EP2 binding assay (PGE2 displacement)
T2 construct: purchased Millipore
Procedure: Method for Measuring Inhibition of PGE2 Binding to the Human Prostanoid Receptor EP2:
Human EP2 receptor equilibrium competition binding assays were performed according to Abramovitz et al. (M. Abramovitz et al. 2000, Biochimica et Biophysica Acta 1483: 285-293) in a final incubation volume of 100 microL in 50 milliM Bis-Tris, pH6.0 in 96-well plates. Radiolabelled Prostaglandin E2 (PGE2) (1 nanoM [^3H]-PGE2 purchased from Perkin Elmer) was added to the assay as competitive ligand. Test compounds stored as Dimethylsulfoxide (DMSO) stock solutions were added to the assay in serial dilutions in assay buffer while keeping the final DMSO concentration equal in each sample. The reaction was initiated by addition of membrane proteins harbouring human EP2 receptor (ChemiSCREEN™ membrane preparation recombinant human EP2 prostanoid receptor that was purchased by Millipore). Total binding was determined in the absence of test compound or PGE2 and non-specific binding was determined in the presence of 1 microM PGE2. Incubations were conducted for 60 minutes at room temperature until equilibrium was reached and terminated by filtration through GF/B filter (Perkin Elmer) prewetted with 0.3% PEI solution. Unbound radiolabelled PGE2 was removed by 8 wash cycles with the same buffer under ice-cold conditions and the filters containing the residual radioactivity were dried for 60 minutes at 60° C. In order to measure the filter bound radioactivity, 40 microL microscint (scintillation liquid) was added to each filter and the chemiluminescence was determined by TopCount-NTX™. The specific binding was calculated by subtracting non-specific binding from each sample. Percent inhibition by test compounds was calculated based on specific binding without test compound. Each sample was measured in triplicates per experiment and for the calculation of the pIC50 at least 2 independent experiments were performed. Determination of half maximal inhibiting concentration (IC50) was performed with GraphPad Prism Software.
The numbers of the compounds correspond to the examples numbers.
EP2 Binding Assay (PGE2 Displacement): pIC50 Values

[4] = recombinant human EP2 membranes, 1 nanoM [3H]-PGE2, reported as range bins, read-out: EP2 binding (PGE2 displacement) pIC50 (-log IC50) (converted)
[5] = CHOp6CreLuc-huEP2 cells, 4 hours at 37° C., reported as range bins, read-out: EP2 cAMP release assay pEC50 (-log EC50) (converted)

T2 sequence (P43116 whole entry): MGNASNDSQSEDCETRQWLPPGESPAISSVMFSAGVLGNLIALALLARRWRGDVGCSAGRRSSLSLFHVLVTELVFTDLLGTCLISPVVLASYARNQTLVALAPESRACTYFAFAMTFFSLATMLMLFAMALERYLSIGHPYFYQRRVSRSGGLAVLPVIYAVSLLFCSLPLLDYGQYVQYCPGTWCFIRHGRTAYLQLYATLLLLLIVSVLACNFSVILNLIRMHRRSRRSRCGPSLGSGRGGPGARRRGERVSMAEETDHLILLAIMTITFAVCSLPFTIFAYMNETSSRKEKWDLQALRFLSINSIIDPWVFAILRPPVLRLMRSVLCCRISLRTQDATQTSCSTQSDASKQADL
T1 sequence (P43116 whole entry): as above

IC50 (human EP2 receptor; [4]) [nM] | EC50 [1, 5] [nM] | SMILES | maximal effect of positive control relative to PGE2 ([1]; CHOp6CreLuc-huEP2 cells) | IC30 [2] [nM] | IC30 [3] [nM] | IC50 (human EP2 receptor) [nM] | EC50 [1] [nM]
1.26 to 10 | 0.126 to 1 | O=C(O)COc1cccc(NC(=O)c2cc(-c3ccccc3)cc3ccccc23)c1 [Example 4] |  | 12600 to 31600 | 126 to 1000 |  | 
12.6 to 100 | 0.00631 to 0.1 | O=C(O)COc1ccc(Cl)c(NC(=O)c2cc(-c3ccccc3)cc3ccccc23)c1 [Example 6] |  |  |  |  | 
1.26 to 10 | 0.126 to 1 | O=C(O)/C=C/c1ccc(F)c(NC(=O)c2cc(-c3ccccc3CO)cc3ccccc23)c1 [Example 13, (2E)-3-{4-fluoro-3-[({3-[2-(hydroxymethyl)phenyl]naphthalen-1-yl}carbonyl)amino]phenyl}prop-2-enoic acid] |  | 126 to 1000 | 126 to 1000 |  | 
1.26 to 10 | 0.126 to 1 | O=C(O)CCc1ccc(F)c(NC(=O)c2cc(-c3cccc(F)c3)cc3ccccc23)c1 [Example 17, 3-[4-fluoro-3-({[3-(3-fluorophenyl)naphthalen-1-yl]carbonyl}amino)phenyl]propanoic acid] |  |  | 126 to 1000 |  | 
12.6 to 100 | 1.26 to 12.6 | O=C(O)CCc1ccc(F)c(NC(=O)c2cc(-c3ccccc3F)cc3ccccc23)c1 [Example 16, 3-[4-fluoro-3-({[3-(2-fluorophenyl)naphthalen-1yl]carbonyl}amino)phenyl]-propanoicacid] |  |  | 126 to 1000 |  | 
1.26 to 10 | 0.00631 to 0.1 | O=C(O)COc1ccc(F)c(NC(=O)c2cc(-c3ccccc3)cc3ccccc23)c1 [Example 5, (4-fluoro-3-{[(3-phenylnaphthalen-1-yl)carbonyl]amino}phenoxy)acetic acid] |  |  |  |  | 
12.6 to 100 | 0.126 to 1 | O=C(O)CCc1ccc(F)c(NC(=O)c2cc(-c3ccccc3)cc3ccccc23)c1 [Example 8, 3-(4-fluoro-3-{[(3-phenylnaphthalen-1-yl)carbonyl]amino}phenyl) propanoic acid] |  |  | 126 to 1000 |  | 
12.6 to 100 | 0.126 to 1 | O=C(O)CCc1cccc(NC(=O)c2cc(-c3ccccc3)cc3ccccc23)c1 [Example 7, 3-(3-{[(3-phenylnaphthalen-1-yl)carbonyl]amino}phenyl) propanoic acid] |  |  | 126 to 1000 |  | 
1.26 to 10 | 0.126 to 1 | O=C(O)/C=C/c1ccc(F)c(NC(=O)c2cc(-c3cccc(CO)c3)cc3ccccc23)c1 [Example 14, (2E)-3-{4-fluoro-3-[({3-[3-(hydroxymethyl)phenyl]naphthalen-1-yl}carbonyl)amino]phenyl}prop-2-enoic acid] |  |  | 126 to 1000 |  | 

More lines, now with the values behind:

SMILES | IC50 (human EP2 receptor; [4]) [nM] | EC50 [1, 5] [nM] | maximal effect of positive control relative to PGE2 ([1]; CHOp6CreLuc-huEP2 cells) | IC30 [2] [nM] | IC30 [3] [nM] | IC50 (human EP2 receptor) [nM] | EC50 [1] [nM]
CCCC1([C@H](O)C/C=C/[C@H]2[C@H](O)CC(=O)[C@@H]2CCCCCCC(=O)OC)CCC1 [butaprost, reference compound] |  |  | same maximal effect compared to the maximal effect of PGE2 |  |  |  | 
O=C(O)/C=C/c1ccc(F)c(NC(=O)c2cc(N3CCCCC3)cc3ccccc23)c1 [Example 22, (2E)-3-[4-fluoro-3-({[3-(piperidin-1-yl)naphthalen-1-yl]carbonyl}amino)phenyl]prop-2-enoic acid] | 12.6 to 100 | 0.126 to 1 |  | 1260 to 10000 | 12.6 to 100 |  | 
O=C(O)/C=C/c1cccc(NC(=O)c2cc(N3CCOCC3)cc3ccccc23)c1 [Example 21, (2E)-3-[3-({[3-(morpholin-4-yl)naphthalen-1-yl]carbonyl}amino)phenyl]prop-2-enoic acid] | 126 to 2000 | 1.26 to 12.6 |  |  | 126 to 1000 |  | 
O=C(O)/C=C/c1ccc(F)c(NC(=O)c2cc(-c3ccc(F)cc3)cc3ccccc23)c1 [Example 11, (2E)-3-{3-[({3-[4-fluorophenyl]naphthalen-1-yl}carbonyl)amino]-4fluorophenyl}prop-2-enoic acid] | 1.26 to 10 | 0.126 to 1 |  |  |  |  | 
CN(C)C(=O)Oc1cccc(-c2cc(C(=O)Nc3cccc(/C=C/C(=O)O)c3)c3ccccc3c2)c1 [Example 23, (2E)-3-(3-{[(3-{3-[(dimethylcarbamoyl)oxy]phenyl}naphthalen-1-yl)carbonyl]amino}phenyl)prop-2-enoic acid] |  |  |  |  | 126 to 1000 | 126 to 2000 | 1.26 to 12.6
O=C(O)/C=C/c1cccc(NC(=O)c2cc(-c3cccc(N4CCNCC4)c3)cc3ccccc23)c1 [Example 20, (2E)-3-{3[({3-[3-(piperazin-1-yl)phenyl]naphthalen-1-yl}carbonyl)amino]phenyl}prop-2-enoic acid] | 126 to 2000 | 1.26 to 12.6 |  |  |  |  | 
CC(=O)NCc1cccc(-c2cc(C(=O)Nc3cc(/C=C/C(=O)O)ccc3F)c3ccccc3c2)c1 [Example 18] |  | 1.26 to 12.6 |  |  | 1260 to 10000 |  | 

Reference: US9309187B2, “EP2 receptor agonists” (TAKEDA GMBH, priority 2012, dated 2016)
